Several values for one entry are separate records, joined by “and”; a condition that tells them apart may be missing. Equal values may be shown once.
Legend:
[1] = Stability of prodrugs in rat plasma supplemented with lipoprotein lipase; format: in vitro ADME; conditions: 12 h
[2] = In situ recirculating intestinal perfusion (absorption rate Ka, with or without orlistat); conditions: rats
[3] = Partition into mixed micellar phase and mixed micelle size after 3 h digestion; format: in vitro ADME; conditions: Sprague-Dawley, rat
Description: (§1) Simulated intestinal digestion
(§2) Bile-pancreatic juice was obtained from the common bile duct of anesthetized rats, which contained bile as well as pancreatic juice as previously described. Then, 20 µL of emulsion was incubated with 180 µL bile-pancreatic juice at 37°C with gentle shaking to simulate intestinal digestion. Samples (20 µL) of the incubation solution were taken at regular intervals (0, 0.08, 0.25, 0.5, 1, 2, 3 h) and added to 180 µL of ACN to analyze the concentration of the TG prodrugs and the monoglyceride derivatives of DTX (MG prodrugs) by HPLC. The solubility of prodrugs in aqueous phase were also determined. […] 20 µL of aqueous phase were collected and the concentration of the TG prodrugs and MG prodrugs were determined as above. The fraction of TG-like prodrugs and MG-like prodrugs partitioning in mix micelle phase (aqueous phase) relative to those in raw digesta were calculated to evaluate the solubility of the prodrugs. At the same time, the particle sizes of mix micelles were measured by Malvern laser particle size analyzer. […]
(§3) In order to study the stability of linkers in circulation, TG prodrugs were incubated with rat plasma supplemented with lipoprotein lipase (LPL, 10000 IU/mL) in which TG prodrugs can be hydrolyzed into MG prodrugs rapidly. […] The concentration of TG, MG prodrugs and free DTX were determined by HPLC. […]

[4] = Simulated intestinal digestion in bile-pancreatic juice (TG prodrug remaining, MG prodrug generated); format: in vitro ADME, rat
Description: as §1, §2, §3

4T1 cells = experiment: MTT cytotoxicity in 4T1 cells; format: cell-based
4T1 xenograft tumors = experiment: In vivo antitumor effect (tumor volume, tumor burden, body weight, H&E of organs); set-up: species or system female BALB/c mice; conditions: 4T1 tumor bearing mice; po, 20 mg kg^−1 equivalent to DTX, every alternate day for 10 days
Description: F௥௘௟ = AUCா௠௨௟௦௜௢௡ ∙Doseௌ௢௟/AUCௌ௢௟/Doseா௠௨௟௦௜௢௡
Fab = AUCp.o. ∙ Dosei.v./AUCi.v./Dosep.o.
Absorption mechanism and biodistribution of TG-mimetic prodrug
The PPa-S-S-TG was synthesized as scheme S2, the PPa-S-S-TG emulsion and its simulated intestinal digestion were implemented in accordance with the step of the TG-like DTX prodrug emulsion. Its reduction-responsibility was verified by incubation PBS with or without DTT. In brief, phosphate buffer solution (pH 7.4) (containing 30% ethanol (v/v)) with or without dithiothreitol (DTT) was used as the release media. The concentration of DTT was fixed at 10 mM. Then, 200 µL of the emulsions (PPa-S-S-TG) was incubated with 20 mL release media (reduction-sensitive or reduction-insensitive) at 37°C. At 0, 3, 12 h, 40 µL samples were taken and added to 160 µL of ACN for analysis. The content change of the PPa-S-S-TG was monitored by HPLC.
The PPa-S-S-TG and the PPa solution (10 mg/kg equivalent to PPa) were administrated to female BALB/c mice bearing the 4T1 cell line. At scheduled times the mice were sacrificed and the GITs, MLNs and tumors were taken out for fluorescence imaging by the Caliper IVIS ® Spectrum in vivo Imaging System. The intestinal tissue of PPa-S-S-TG group was then washed, fixed with 4% paraformaldehyde for 2 h, and dehydrated in 30% sucrose overnight. […]
was used as a control. […] Body weight and tumor volume were recorded every day. […]

KB cells = experiment: MTT cytotoxicity in KB cells; format: cell-based
[5] = Hepatic and renal function analysis; format: in vivo, female BALB/c mice; conditions: mice after treatment
Excerpt: Gastrointestinal toxicity evaluation
Nine female BALB/c mice were divided into four groups (n=3 each group) and were […]
saline (control) every day. Five days later, the mice were sacrificed and their blood was obtained for hepatic and renal function analysis. The stomach, duodenum, jejunum and ileum were taken and fixed in 4% paraformaldehyde solution for hematoxylin and eosin (H&E) staining. The histological sections were imaged using an optical microscope.
Student's t-test was used to determine significant differences between the two groups.
When p<0.05, there was a significant difference, and very significant differences between two groups were defined as p<0.01.

SMILES	DTX released [1]	Ka, fold increase in comparison with the DTX solution [2]	Partition of TG-like prodrug into the micellar phase [3]	Intestinal digestion (rate) in bile-pancreatic juice [4]	Amount of MG derivative generated ([4]; Sprague-Dawley, rat, 3 h)	Cytotoxicity (IC50 values) (4T1 cells; 48 h)	Cytotoxicity (IC50 values) (4T1 cells; 72 h)	Tumor inhibition (4T1 xenograft tumors)	Cytotoxicity (IC50 values) (KB cells; 48 h)	Cytotoxicity (IC50 values) (KB cells; 72 h)	ALT ([5]; AVERAGE of 3 animals)	AST ([5]; AVERAGE of 3 animals)	BUN ([5]; AVERAGE of 3 animals)	CR ([5]; AVERAGE of 3 animals)	ALT ([5]; individual animal)	AST ([5]; individual animal)	BUN ([5]; individual animal)	CR ([5]; individual animal)
CCCCCCCCCCCCCCCC(=O)OCC(COC(=O)CCCCCCCCCCCCCCC)OC(=O)C(CCC(=O)O[C@@H](C(=O)O[C@H]1C[C@@]2(O)[C@@H](OC(=O)c3ccccc3)[C@@H]3[C@]4(OC(C)=O)CO[C@@H]4C[C@H](O)[C@@]3(C)C(=O)[C@H](O)C(=C1C)C2(C)C)[C@@H](NC(=O)OC(C)(C)C)c1ccccc1)OC(=O)C(C)(C)C (stereo partly shown) [DTX‐5C(Piv)‐TG]	10%	1.15 fold	about 40.2%	poorest intestinal digestion rate	74%													
CCCCCCCCCCCCCCCC(=O)OCC(COC(=O)CCCCCCCCCCCCCCC)OC(=O)CCCC(=O)O[C@@H](C(=O)O[C@H]1C[C@@]2(O)[C@@H](OC(=O)c3ccccc3)[C@@H]3[C@]4(OC(C)=O)CO[C@@H]4C[C@H](O)[C@@]3(C)C(=O)[C@H](O)C(=C1C)C2(C)C)[C@@H](NC(=O)OC(C)(C)C)c1ccccc1 [DTX‐5C‐TG]		1.91 fold				0.3571 µg/mL	0.1569 µg/mL	effective tumor inhibition	0.2265 µg/mL	0.0882 µg/mL								
CC(=O)O[C@@]12CO[C@@H]1C[C@H](O)[C@@]1(C)C(=O)[C@H](O)C3=C(C)[C@@H](OC(=O)[C@H](O)[C@@H](NC(=O)OC(C)(C)C)c4ccccc4)C[C@@](O)([C@@H](OC(=O)c4ccccc4)[C@H]21)C3(C)C [DTX i.g.]											41.6037 U/L	150.819 U/L	8.409 mmol/L	62.3087 µmol/L	57.9809 U/L and 28.6275 U/L and 38.2028 U/L	129.269 U/L and 163.103 U/L and 160.084 U/L	8.8262 mmol/L and 7.2013 mmol/L and 9.1982 mmol/L	51.2097 µmol/L and 66.2585 µmol/L and 69.4579 µmol/L
